Experimental data from patent publication US5326788A, “Biological fluid purification system” (priority 1992, dated 1994).

Test: Addition of hypericin to whole blood: standard blood chemistries, complete blood count, coagulation profile
Design: species or system human; MCV / MCH / MCHC / Bilirubin (direct): unit not given here
Description: Triplicate samples of blood were drawn from two normal individuals directly into vacuum tubes. Into one set of tubes was added hypericin dissolved in 10% ethanol, 40% propylene glycol, 50% water to a final concentration of hypericin of 0.1 micrograms/ml of blood. A second set of tubes received hypericin at 1.0 micrograms/ml of blood. The final concentration of ethanol was 0.01% and of propylene glycol 0.04% in each sample, respectively. The third set served as an untreated control. Hypericin-treated and untreated samples were taken directly to a clinical laboratory for testing of standard blood chemistries, complete blood count, and a coagulation profile.

## Cc1cc(O)c2c(=O)c3c(O)cc(O)c4c5c(O)cc(O)c6c(=O)c7c(O)cc(C)c8c1c2c(c34)c(c78)c65 [hypericin]
1.0 and 0.1 micrograms/ml
  effect on blood chemistries and hematologic parameters (summary): no significant effect
Subject #1, 0.1 micrograms/ml
  BUN: 13 mg/dL
  Bilirubin: 0.5 mg/dL
  Bilirubin (direct): 0.1
  CO2: 28 meq/l
  Ca^+: 10.1 mg/dL
  Cl^-: 106 meq/l
  Creat: 0.9 mg/dL
  ESR: 5 mm/hr
  Hb: 15.8 gm/dl
  Hct: 46.7%
  K^+: 4.2 meq/l
  LDH: 154 IU/l
  MCH: 30.8
  MCHC: 33.8
  MCV: 91.0
  Na^+: 140 meq/l
  SGOT: 19 IU/l
  WBC: 8.1 /cu mm
  albumin: 4.8 gm/dl
  alk phos: 76 IU/l
  cholesterol: 255 mg/dL
  glucose: 107 mg/dL
  lymphs: 34.9%
  monos: 4.2%
  neutr: 60.9%
  phosphate: 3.7 mg/dL
  total protein: 7.5 gm/dl
  uric acid: 5.7 mg/dL
Subject #1, 1.0 micrograms/ml
  BUN: 12 mg/dL
  Bilirubin: 0.5 mg/dL
  Bilirubin (direct): 0.1
  CO2: 28 meq/l
  Ca^+: 10.2 mg/dL
  Cl^-: 106 meq/l
  Creat: 0.9 mg/dL
  ESR: 4 mm/hr
  Hb: 16.0 gm/dl
  Hct: 47.6%
  K^+: 4.3 meq/l
  LDH: 153 IU/l
  MCH: 30.6
  MCHC: 33.6
  MCV: 91.1
  Na^+: 137 meq/l
  SGOT: 15 IU/l
  WBC: 8.0 /cu mm
  albumin: 4.8 gm/dl
  alk phos: 75 IU/l
  cholesterol: 258 mg/dL
  glucose: 105 mg/dL
  lymphs: 32.9%
  monos: 5.5%
  neutr: 61.6%
  phosphate: 3.6 mg/dL
  total protein: 7.5 gm/dl
  uric acid: 5.6 mg/dL
Subject #2, 0.1 micrograms/ml
  BUN: 9 mg/dL
  Bilirubin: 0.5 mg/dL
  Bilirubin (direct): 0.1
  CO2: 27 meq/l
  Ca^+: 9.5 mg/dL
  Cl^-: 108 meq/l
  Creat: 0.7 mg/dL
  ESR: 1 mm/hr
  Hb: 13.0 gm/dl
  Hct: 37.8%
  K^+: 4.4 meq/l
  LDH: 110 IU/L
  MCH: 31.4
  MCHC: 34.4
  MCV: 91.4
  Na^+: 140 meq/l
  SGOT: 15 IU/L
  WBC: 6.7 /cu mm
  albumin: 4.5 gm/dl
  alk phos: 51 IU/l
  cholestrol: 133 mg/dL
  glucose: 96 mg/dL
  lymphs: 33.1%
  monos: 4.9%
  neutr: 62.0%
  phosphate: 3.0 mg/dL
  total protein: 6.4 g/dL
  uric acid: 4.2 mg/dL
Subject #2, 1.0 micrograms/ml
  BUN: 8 mg/dL
  Bilirubin: 0.5 mg/dL
  Bilirubin (direct): 0.1
  CO2: 27 meq/l
  Ca^+: 9.5 mg/dL
  Cl^-: 108 meq/l
  Creat: 0.6 mg/dL
  ESR: 1 mm/hr
  Hb: 12.9 gm/dl
  Hct: 37.3%
  K^+: 4.5 meq/l
  LDH: 97 IU/L
  MCH: 31.6
  MCHC: 34.6
  MCV: 91.3
  Na^+: 141 meq/l
  SGOT: 14 IU/L
  WBC: 6.4 /cu mm
  albumin: 4.4 gm/dl
  alk phos: 52 IU/l
  cholestrol: 131 mg/dL
  glucose: 95 mg/dL
  lymphs: 32.0
  monos: 5.2%
  neutr: 62.8%
  phosphate: 3.1 mg/dL
  total protein: 6.3 g/dL
  uric acid: 4.1 mg/dL
